# Target: T1, porcine pancreatic lipase (Sus scrofa, UniProt P00591)
# T1 construct: purchased Sigma, St. Louis, MO
# T1 sequence (P00591 1-450): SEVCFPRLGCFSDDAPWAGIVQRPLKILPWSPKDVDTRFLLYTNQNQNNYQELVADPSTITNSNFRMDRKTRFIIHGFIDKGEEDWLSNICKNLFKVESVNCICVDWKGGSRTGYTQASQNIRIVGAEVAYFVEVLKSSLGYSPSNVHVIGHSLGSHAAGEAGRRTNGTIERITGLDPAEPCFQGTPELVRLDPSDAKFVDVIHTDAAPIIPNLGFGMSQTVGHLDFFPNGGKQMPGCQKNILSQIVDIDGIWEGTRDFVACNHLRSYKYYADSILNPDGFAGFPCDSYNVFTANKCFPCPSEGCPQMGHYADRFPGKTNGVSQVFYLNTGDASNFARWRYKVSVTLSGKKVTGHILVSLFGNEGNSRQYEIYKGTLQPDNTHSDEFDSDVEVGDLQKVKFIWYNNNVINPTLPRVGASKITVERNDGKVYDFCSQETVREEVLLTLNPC
# Test: Pancreatic lipase inhibition assay (p-NPB hydrolysis, OD 405 nm)
# Format: biochemical
# Conditions: substrate p-NPB, 37 °C, mean ± S.D. of quadruplicate experiments, read-out: IC50, pancreatic lipase inhibitory activity (concentration that caused a 50% reduction in enzyme activity)
# Description: The ability of the compounds to inhibit porcine pancreatic lipase was evaluated using previously reported methods with a minor modification. Briefly, an enzyme buffer was prepared by the addition of 30 μL (10 units) of a solution of porcine pancreatic lipase (Sigma, St. Louis, MO) in10 mM MOPS (morpholinepropanesulphonic acid), and 1 mM EDTA, pH 6.8 to 850 μL of Tris buffer (100 mM Tris-HC1 and 5 mM CaCl2, pH 7.0). […] Pancreatic lipase activity was determined by measuring the hydrolysis of p-NPB to p-nitrophenol at 405 nm using an ELISA reader (Tecan, Infinite F200, Austria). Inhibition of lipase activity was expressed as the percentage decrease in the OD when porcine pancreatic lipase was incubated with the test compounds.
row,Compound,IC50 [µM]
1,"O=c1cc(-c2ccc(O)c(O)c2)oc2cc(O)cc(O)c12 [Compound 6, luteolin]",> 200
2,"O=C(/C=C/c1ccc(O)c(O)c1)O[C@@H]1C[C@](O)(C(=O)O)C[C@@H](O)[C@H]1O [Compound 7, chlorogenic acid]",> 200
3,"COC(=O)[C@]1(O)C[C@@H](O)[C@@H](O)[C@H](OC(=O)/C=C/c2ccc(O)c(O)c2)C1 [Compound 8, methyl chlorogenate]",33.6 ± 2
4,"O=C(O)/C=C/c1ccc(O)c(O)c1 [Compound 9, caffeic acid]",> 200

# More lines, now with the values ahead:
row,IC50 [µM],Compound
1,50.5 ± 3.9,"C[C@H]1O[C@@H](c2c(O)cc3oc(-c4ccc(O)c(O)c4)cc(=O)c3c2O)C[C@H](O)[C@H]1O [Compound 1, luteolin 6-C-β-D-boivinopyranoside]"
2,31.6 ± 2.7,"O=c1cc(-c2ccc(O)c(O)c2)oc2c([C@@H]3O[C@H](CO)[C@@H](O)[C@H](O)[C@H]3O)c(O)cc(O)c12 [Compound 2, orientin]"
3,44.6 ± 1.3,"O=c1cc(-c2ccc(O)c(O)c2)oc2cc(O)c([C@@H]3O[C@H](CO)[C@@H](O)[C@H](O)[C@H]3O)c(O)c12 [Compound 3, isoorientin]"
4,18.5 ± 2.6,"CC1OC(OC2C(c3c(O)cc4oc(-c5ccc(O)c(O)c5)cc(=O)c4c3O)OC(CO)C(O)C2O)C(O)C(O)C1O [Compound 5, isoorientin 2-O-α-L-rhamnoside]"

# Reference: article PMC6259569, “Pancreatic Lipase Inhibition by C-Glycosidic Flavones Isolated from Eremochloa ophiuroides” (Molecules, 2010)
